Columns and labels:
HSP-dependent mRNAs = experiment: Cytoplasmic chaperone expression by qPCR in SH-5YSY; format: cell-based; settings: 24 h treatment
Experimental: (§1) FIG. 5. Effect of SYN1 on cytoplasmic chaperones expression. The expression of the genes listed in the graph was assessed using qPCR in SH-5YSY after 24 h treatment with SYN1.

HSP70-2 = experiment: as above; format: cell-based; settings: 24 h treatment
Experimental: as §1

HSP27 = experiment: as above; format: cell-based; settings: 24 h treatment
Experimental: as §1

Primary cortical neurons = experiment: Neurotoxicity induced by H2O2 in primary cortical neurons; format: cell-based; settings: 24 h pretreatment, 80 μM H2O2
Experimental: (§2) FIGS. 4A-4F. SYN1 and SYN2 increase the expression and activity of NF-κB target genes, such as MnSOD in neurons. […] A commercially available kit, modified to detect MnSOD activity in primary neurons, was used. Neurons were exposed to 3 mM SYN1 or 300 nM SYN2 for 24 h. […] TNF-α was included as a reference. FIGS. 4B, 4D and 4F show SYN1 and SYN2 increase MnSOD protein expression. Mature primary neurons (FIG. 4B), SH-SY5Y cells (FIG. 4D), and NSC-34 cells (FIG. 4F) were treated for 24 h with the compounds. Thereafter, cells were lysed, and proteins were extracted and subjected to SDS-PAGE. Immunoblots were then performed following the instructions of the antibody manufacturer. ECL was used for detection. […] The effect of TNF exposure is provided for reference. […] Primary cortical neurons at 6 D.I.V. were pretreated for 24 h with compounds and then challenged with 80 μM of H2O2. […] SYN1 at 3 μM inhibited cell death by 100%. […] The protection exceeded 60% and extended up to a concentration of 1 μM. […] NSC-34 cells were treated for 24 h with the compounds. Thereafter, cells were lysed, and cytosolic and nuclear fractions were separated. Subsequently, SDS-PAGE and immunoblots were performed. ECL was used for detection. […] The effect of TNF exposure was provided for reference. […] ANOVA+Bonferroni's.

MnSOD [1] = experiment: MnSOD protein expression by immunoblot in neurons; format: cell-based; settings: 24 h; for MnSOD expression by Western blot: NSC-34 cells; for MnSOD protein expression: mature primary neurons, SH-SY5Y cells and NSC-34 cells
Experimental: as §2

MnSOD [2] = experiment: MnSOD activity in primary neurons (modified commercial kit); format: cell-based; settings: 3 mM SYN1 or 300 nM SYN2 for 24 h
Experimental: as §2

NF-κB p65 = NF-κB p65 nuclear translocation in NSC-34 immortalized motoneurons, immunoblot; format: cell-based; settings: NSC-34 cells, 24 h
Experimental: as §2

SOD-1-G93A ALS mouse = experiment: SOD-1-G93A ALS mouse: survival, weight, neurologic score; format: in vivo; settings: for survival (Kaplan-Meier analysis): administration at the time of onset; for body weight lost / inhibition of body weight loss: at 120 days; for inhibition of body weight loss: versus control animals; for lifespan extension at 50% survival: male mice, 25 mg/kg IP daily from day 96
Experimental: FIGS. 6A-6D. Effect of SYN1 and SYN2 in SOD-1-G93A ALS mouse. The animals were received at day 70 and kept until day 96, at which time daily IP treatment was started with 25 mg/kg of the compounds. Weight and standard neurologic scores (N.S.) were assessed on alternate days. A N.S. of 4 triggered the exception (euthanized accordingly to humane practices). […] Data in FIGS. 6A and 6B document a 66% and an 81% lifespan extension for SYN1 and SYN2, respectively, at 50% survival in male mice. […] The average weight within the groups before the treatment was similar (inset to FIG. 6C). However, at 120 days, control animals lost on average 12% of the body weight (FIG. 6C). […] Although progression from N.S. 0 to 1 was delayed only by SYN1 (2 day delay, +30%), progression to higher N.S. was delayed by both agents (FIG. 6D). […] Control animals reached N.S.=2 at 30 days on average; treated animals reached N.S.=2 at day 46 or later on average. *P<0.05; **P<0.01.

**Q.** For `O=C(/C=C/Nc1ccccc1Br)c1ccc2c(c1)OCO2` [SYN1], which “HSP-dependent mRNAs” value (HSP-dependent mRNAs) is on record?
**A.** Its value is “significantly increased”.

**Q.** And the HSP70-2 gene expression (HSP70-2)?
**A.** The HSP70-2 gene expression was “significantly up-regulated”.

**Q.** And the HSP27 gene expression (HSP27)?
**A.** The HSP27 gene expression was “significantly up-regulated”.

**Q.** And the “inhibition of cell death” value (Primary cortical neurons; 3 μM)?
**A.** The value was 100%.

**Q.** And the “MnSOD expression by Western blot” value (MnSOD [1])?
**A.** Its value is “increased expression of MnSOD”.

**Q.** And the MnSOD protein expression (MnSOD [1])?
**A.** The MnSOD protein expression was “increased MnSOD expression in all three kinds of neurons”.

**Q.** And the MnSOD activity (MnSOD [2])?
**A.** The MnSOD activity was “significantly increased”.

**Q.** What about the p65 nuclear presence (NF-κB p65) of the same compound?
**A.** The p65 nuclear presence was “increased p65 nuclear presence”.

**Q.** What about the “delay of progression from N.S. 0 to 1” value (SOD-1-G93A ALS mouse; 25 mg/kg IP daily) of the same compound?
**A.** Its value is 2 days.

**Q.** And the “delay of progression from N.S. 0 to 1, relative” value (SOD-1-G93A ALS mouse; 25 mg/kg IP daily)?
**A.** Its value is 30%.

**Q.** What about the “time spent at N.S.1” value (SOD-1-G93A ALS mouse; 25 mg/kg IP daily) of the same compound?
**A.** Its value is “increased the time spent at N.S.1”.

**Q.** What about the “survival (Kaplan-Meier analysis)” value (SOD-1-G93A ALS mouse; 25 mg/kg IP daily) of the same compound?
**A.** Its value is “significantly extended survival”.

**Q.** And the body weight lost (SOD-1-G93A ALS mouse; 25 mg/kg IP daily)?
**A.** Its body weight lost is 3%.

**Q.** What about the “inhibition of body weight loss” value (SOD-1-G93A ALS mouse) of the same compound?
**A.** Its value is 75%.

**Q.** And the “lifespan extension at 50% survival” value (SOD-1-G93A ALS mouse)?
**A.** The value was 66%.

**Q.** Which results are given for `Cc1cccnc1Nc1nc(-c2ccccn2)cs1` [SYN2]?
**A.** concentration of peak effect (Primary cortical neurons): 300 nM; concentration up to which protection extended (Primary cortical neurons): ≤ 1 µM; protection (Primary cortical neurons): exceeded 60%; MnSOD expression by Western blot (MnSOD [1]): increased expression of MnSOD; MnSOD protein expression (MnSOD [1]): increased MnSOD expression in all three kinds of neurons; MnSOD activity (MnSOD [2]): significantly increased; p65 nuclear presence (NF-κB p65): increased p65 nuclear presence; time spent at N.S.1 (SOD-1-G93A ALS mouse; 25 mg/kg IP daily): increased the time spent at N.S.1; survival (Kaplan-Meier analysis) (SOD-1-G93A ALS mouse; 25 mg/kg IP daily): significantly extended survival; body weight lost (SOD-1-G93A ALS mouse; 25 mg/kg IP daily): 4%; inhibition of body weight loss (SOD-1-G93A ALS mouse): 65%; lifespan extension at 50% survival (SOD-1-G93A ALS mouse): 81%

From patent US10808247B2, “Methods for treating neurological disorders using a synergistic small molecule and nucleic acids therapeutic approach” (Phio Pharmaceuticals Corp., priority 2015, dated 2020)
